Read-outs that look alike come from different tables or passages of the source.
What was measured:
female zebrafish = test: In vivo zebrafish kinetics of BPZ (water exposure, organ concentrations by LC-MS/MS); design: species or system zebrafish (Danio rerio); conditions: 17 μg/L in water, observed
Method: (§1) At sampling, adult fish were euthanized by immersion in a sodium bicarbonate-buffered tricaine methanesulfonate solution (MS222: 500 mg/L) and decapitated thereafter. […] Additionally, three whole fish were sampled at timepoints of 6, 12, and 24 h of the exposure phase. Water from the fish tank was sampled at 0, 12, 24, 48, 72, 168, 336, 411, and 480 h after exposure start as well as at 0, 12, 24, and 96 h after the start of depuration. Control fish and tank water were sampled before the start of exposure. All samples were immediately stored at −20 °C until further analysis. […]
(§2) 1223. In Vivo Zebrafish Kinetics of BPZ
(§3) 123Adult zebrafish were purchased from a local supplier in Uppsala, Sweden, and acclimatized for
(§4) 1246 weeks before the start of the study. The zebrafish were kept in 26 °C charcoal filtered tap
(§5) 173NH 4OH and 4 ml acetonitrile/tetrahydofuran (1:1) mixture. The 4 ml 2% formic acid in
(§6) 174methanol eluates were evaporated until dry. Remaining residues were then reconstituted in 50
(§7) 175µl water and methanol 50/50 v/v mixture. Extracts were stored at 4°C until measurement.
(§8) 176The extracts were measured on a LC (ExionLC, Sciex) coupled with a Turbo V Ion source (ESI)
(§9) 178Sciex). Separation of compound was done on a phenyl-hexyl column (Kinetex, 100 x 2.1 mm,
(§10) 1791.7 µm, Phenomenex) set at 45°C using a gradient of 0.2 mM NH 4F and 0.2 mM NH4F in
(§11) 180acetonitrile. The applied MRM transitions and MS/MS settings are described in Tables S5-S8.
(§12) LC column Kinetex Phenyl-hexyl column, 1.7 µm, 2,1 mm X 100
(§13) Delay column Isolator column, 2.1 mm X 100 mm (Waters)
(§14) Gradient 0.2 mM NH4F 0.2 mM NH4F in
(§15) 194limit of detection (LOD). The LOD is defined as three times the standard deviation of the blank
(§16) 195plus the average blank value. The limit of quantification (LOQ) is defined as 3.3 * LOD value
(§17) Blank pg/extract Recovery % Repeatability %
(§18) Detection and report limits (calculated on based of average sample intake)

[1] = as above; design: species or system zebrafish (Danio rerio); conditions: female, zebrafish; for concentration at 12 h / concentration at 483 h / concentration at 486 h / concentration at 492 h / concentration at 504 h / concentration at 576 h / concentration at 6 h / concentration at 24 h / concentration at 48 h / concentration at 72 h / concentration at 336 h / concentration at 411 h / concentration at 480 h: female zebrafish; for concentration at 483 h: 483 h (depuration phase); for concentration at 486 h: 486 h (depuration phase); for concentration at 492 h: 492 h (depuration phase); for concentration at 504 h: 504 h (depuration phase); for concentration at 576 h: 576 h (depuration phase); for concentration at 480 h: 480 h (one outlier fish removed); for Cmax / half-life: 17 μg/L in water, observed
Method: as §1, §2, §3, §4, §5, §6, §7, §8, §9, §10, §11, §12, §13, §14, §15, §16, §17, §18

zebrafish = test: PBTK parameter fitting (Nelder–Mead algorithm) to in vivo zebrafish data; design: species or system zebrafish (Danio rerio); conditions: fitted on brain BPZ concentrations of current study; used for all bisphenols
From the text: Ovaries and eggs were assumed to receive the same blood flow. The equation for the egg compartment was described as follows using the diffusion-limited equation previously described by Thompson and Beard[51] [drawing 4] 4 where dAegg/dt represents the rate of change of bisphenol over time in the egg compartment, Agon and Aegg represent the amount of compound in the gonads and egg, respectively, Vgon and Vegg are the volumes of the gonads and eggs, respectively, and Pgon and Pegg are the partition coefficients of the gonads to blood and egg to gonads.
Parameter fitting was done in R using the modFit function in the FME package with the Nelder–Mead algorithm.[53]
279For fitting, the model was run using the exposure scenarios of each fitting data set.
280parameters were fixed as presented in Tables S10-S14 with exception of the parameter for
281which fitting was performed. The outcome evaluated by fitting algorithm was the concentration
282over time in the same tissue as the experimental data. Outcomes used for fitting to measured
283experimental data were: concentration in brain for brain-blood partition coefficient,
284concentration in liver for liver-blood partition coefficient, concentration in eggs for egg-gonad
285partition coefficient and whole-body metabolite concentration for Ke bile and KBG of metabolites.
286For the liver, brain and egg partitioning, the range was set between 0.01 and 500 and the Nelder-
287Mead algorithm was run with initial estimates at 1, 5, 10, 50 and 500 in order to assure a global
288minimum was found. The fitted values returning the lowest squared sum of residuals were used
The GI lumen to GI tract diffusion rate (K u)

[2] = In vitro biotransformation rate, rainbow trout liver S9 (OECD TG 319); assay type: in vitro ADME
Method: In brief, rainbow trout liver S9 homogenate was preincubated in buffer and cofactors, followed by 120 min of incubation with bisphenol. From each duplicate, 50 μL of subsamples was taken at timepoints 0, 2, 5, 15, 30, 60, 90, and 120 min and mixed with 200 μL of ice-cold methanol. The protocol of the procedure is described further in Section 2.
1042. Biotransformation rate estimation methodology
106Trinova Biochem; Lot: 180216) was pre-incubated at 11°C in K 2HPO4/KH2PO4 buffer
107(pH=7.8; 1 mL final volume) containing alamethicin from Trichoderma viride (25 μg/mL), and
108cofactors NADPH (2 mM), UDPGA (2 mM), GSH (5 mM), and PAPS (0.1 mM). After 10 min
109of preincubation, biotransformation was started by adding 5 µL of bisphenol test compound
110dissolved in methanol (1 µM final concentration). […]

[3] = brain, other: exposure via tank water, 10 μg/L (nominal water concentration), read-out: Mean concentration, brain
[4] = brain, other: water exposure, 10 µg/L, read-out: Mean concentration, brain
[5] = carcass, other: exposure via tank water, 10 μg/L (nominal water concentration), read-out: Mean concentration, carcass
[6] = carcass, other: water exposure, 10 µg/L, read-out: Mean concentration, carcass
[7] = liver, other: exposure via tank water, 10 μg/L (nominal water concentration), read-out: Mean concentration, liver
[8] = liver, other: water exposure, 10 µg/L, read-out: Mean concentration, liver
[9] = ovary, other: exposure via tank water, 10 μg/L (nominal water concentration), read-out: Mean concentration, ovary
[10] = ovary, other: water exposure, 10 µg/L, read-out: Mean concentration, ovary
[11] = whole body (calculated), other: water exposure, 10 µg/L, read-out: Mean concentration, whole body (calculated)
[12] = whole body, other: exposure via tank water, 10 μg/L (nominal water concentration), read-out: Mean concentration, whole body (calculated)
[13] = whole body, other: water exposure, 10 µg/L, read-out: Mean concentration, whole body (measured)
[14] = 17 μg/L (water concentration), brain
[15] = 17 μg/L (water concentration), carcass

Oc1ccc(C2(c3ccc(O)cc3)CCCCC2)cc1 [BPZ, bisphenol Z]
AUC (female zebrafish; brain): 2.85 µg/g/day | BCF (female zebrafish; brain): 10.0 | AUC (female zebrafish; carcass): 12.5 µg/g/day | BCF (female zebrafish; carcass): 65.9 | AUC (female zebrafish; liver): 7.07 µg/g/day | BCF (female zebrafish; liver): 59.2 | AUC (female zebrafish; ovaries): 4.70 µg/g/day | BCF (female zebrafish; ovaries): 15.8 | AUC (female zebrafish; whole body): 10.6 µg/g/day | BCF (female zebrafish; whole body): 52.9 | concentration at 12 h [1, 3]: 82.1 ng/g | concentration at 483 h [1, 3]: 14.4 ng/g | concentration at 486 h [1, 3]: 7.9 ng/g | concentration at 492 h [1, 3]: < 2.5 ng/g | concentration at 504 h [1, 3]: < 3 ng/g | concentration at 576 h [1, 3]: < 2.5 ng/g | concentration at 6 h [1, 4]: 72 ng/g | concentration at 24 h [1, 4]: 116 ng/g | concentration at 48 h [1, 4]: 64.4 ng/g | concentration at 72 h [1, 4]: 170 ng/g | concentration at 336 h [1, 4]: 156 ng/g | concentration at 411 h [1, 4]: 150 ng/g | concentration at 480 h [1, 4]: 61.4 ng/g | concentration at 480 h [1, 5]: 249 ng/g | concentration at 483 h [1, 5]: 133 ng/g | concentration at 486 h [1, 5]: 24.3 ng/g | concentration at 492 h [1, 5]: 18.9 ng/g | concentration at 504 h [1, 5]: 8.3 ng/g | concentration at 576 h [1, 5]: 1.6 ng/g | concentration at 6 h [1, 6]: 160 ng/g | concentration at 12 h [1, 6]: 261 ng/g | concentration at 24 h [1, 6]: 671 ng/g | concentration at 48 h [1, 6]: 612 ng/g | concentration at 72 h [1, 6]: 1120 ng/g | concentration at 336 h [1, 6]: 348 ng/g | concentration at 411 h [1, 6]: 557 ng/g | concentration at 12 h [1, 7]: 57.5 ng/g | concentration at 483 h [1, 7]: 252 ng/g | concentration at 486 h [1, 7]: 71.3 ng/g | concentration at 492 h [1, 7]: 11 ng/g | concentration at 504 h [1, 7]: 12.4 ng/g | concentration at 576 h [1, 7]: 4.4 ng/g | concentration at 6 h [1, 8]: 182 ng/g | concentration at 24 h [1, 8]: 364 ng/g | concentration at 48 h [1, 8]: 225 ng/g | concentration at 72 h [1, 8]: 536 ng/g | concentration at 336 h [1, 8]: 146 ng/g | concentration at 411 h [1, 8]: 232 ng/g | concentration at 480 h [1, 8]: 1010 ng/g | concentration at 12 h [1, 9]: 113 ng/g | concentration at 480 h [1, 9]: 69.3 ng/g | concentration at 483 h [1, 9]: 108 ng/g | concentration at 486 h [1, 9]: 108 ng/g | concentration at 492 h [1, 9]: 84.5 ng/g | concentration at 504 h [1, 9]: 48.3 ng/g | concentration at 576 h [1, 9]: 1 ng/g | concentration at 6 h [1, 10]: 85.3 ng/g | concentration at 24 h [1, 10]: 146 ng/g | concentration at 48 h [1, 10]: 146 ng/g | concentration at 72 h [1, 10]: 259 ng/g | concentration at 336 h [1, 10]: 269 ng/g | concentration at 411 h [1, 10]: 214 ng/g | concentration at 12 h [1, 11]: 203 ng/g | concentration at 24 h [1, 11]: 530 ng/g | concentration at 48 h [1, 11]: 500 ng/g | concentration at 72 h [1, 11]: 900 ng/g | concentration at 336 h [1, 11]: 296 ng/g | concentration at 411 h [1, 11]: 472 ng/g | concentration at 6 h [1, 12]: 130 ng/g | concentration at 6 h ([1]; whole body, other: exposure via tank water, 10 μg/L (nominal water concentration), read-out: Mean concentration, whole body (measured)): 215 ng/g | concentration at 480 h [1, 12]: 449 ng/g | concentration at 483 h [1, 12]: 128 ng/g | concentration at 486 h [1, 12]: 35.1 ng/g | concentration at 492 h [1, 12]: 28.2 ng/g | concentration at 504 h [1, 12]: 14.5 ng/g | concentration at 576 h [1, 12]: 1.5 ng/g | concentration at 12 h [1, 13]: 336 ng/g | concentration at 24 h [1, 13]: 435 ng/g | Cmax [1, 14]: 170 ng/g | half-life [1, 14]: 135 h | Cmax [1, 15]: 1120 ng/g | half-life [1, 15]: 119 h | Cmax ([1]; liver): 1010 ng/g | half-life ([1]; liver): 210 h | Cmax ([1]; ovaries): 270 ng/g | half-life ([1]; ovaries): 247 h | Cmax ([1]; whole body): 900 ng/g | half-life ([1]; whole body): 134 h | Pbb (brain to blood partition coefficient) (zebrafish): 0.42 | CL ([2]; both series combined): 0.30 mL/(h x mg) | CLin vivo,int (in vivo intrinsic clearance) ([2]; from measured S9 clearance, transformed as suggested by Nichols et al.): 17.4 L/d/Kg fish | CL (clearance rate) ([2]; in vitro incubation with rainbow trout liver S9, assuming 163 mg S9 protein/g liver): 1.16 × 10^3 mL/d/g liver | CL ([2]; series 1 (s1)): 0.33 mL/(h x mg) | k (first-order disappearance rate constant) ([2]; series 1 (s1)): 0.32 h⁻¹ | CL ([2]; series 2 (s2)): 0.26 mL/(h x mg) | k (first-order disappearance rate constant) ([2]; series 2 (s2)): 0.26 h⁻¹

From paper PMC9301920, “Physiologically Based Toxicokinetic Modeling of Bisphenols in Zebrafish (Danio rerio) Accounting for Variations in Metabolic Rates, Brain Distribution, and Liver Accumulation” (Environmental Science & Technology, 2022)
